The values that follow come from PMC6838110 (Nature Communications, 2019).

Common to all, as to assay type: in vivo, mice
The test system of assay [1] is BT474 breast cancer xenografts. In words: Xenograft efficacy study with liposomal doxorubicin. The settings on record: AZD7648 37.5 mg kg−1 bid × 28 days, single agent. The procedure: (§1) Immunocompromised SCID (C.B-17/IcrHan®Hsd-Prkdc^scid) or Hsd:Athymic Nude-Foxn1^nu female mice (Envigo) were used for tumour implantation. […] When dosed twice daily, the time between the morning and evening doses was 8 h. Targeted irradiation of 2 Gy was delivered over 2 min daily over the first 5 days of treatment. Liposomal doxorubicin (Doxoves) was diluted in physiological saline and intravenously dosed at 2.5 or 5 mg kg^−1 once per week. Olaparib was formulated in 10% DMSO/30% Kleptose and orally dosed at 100 mg kg^−1 once daily. […] Statistical significance was evaluated using a one-tailed t-test. All in vivo studies complied with all relevant ethical regulations for animal testing and research, followed AstraZeneca’s global bioethics policy and received ethical approval from the AstraZeneca ethical committee. HBCx-17 PDX study was carried out at XenTech, France in accordance with French regulatory legislation concerning the protection of laboratory animals. CTG-703, CTG-0828 and CTG-0149 PDX studies were carried out at Champions Oncology, Inc., USA in accordance to the guidelines of the Institutional Animal Care and Use Committee (IACUC) of Champions Oncology and the USA regulatory legislation. […]
Tumours were measured (length x width) by bilateral Vernier calliper measurements and tumour volume calculated using Mousetrap software. […]

In a further assay the test system is NCI-H1299 xenografts. In words: Xenograft efficacy study with fractionated IR. As to the method:
as §1, with “legislation. CDX and OV2022 PDX studies were conducted in the UK in accordance with UK Home Office legislation, the Animal Scientific Procedures Act 1986 and the Home Office project licences 70/8839, 70/8894 and P0EC1FFDF.” for “legislation.”
(§2) Tumours were measured (length x width) by bilateral Vernier calliper measurements and tumour volume calculated using Mousetrap software. Mice were randomized into […]
(§3) treatment groups when mean tumour volume reached ~0.2 cm 3. AZD7648 was formulated in 0.5% hydroxypropyl methylcellulose (HPMC)/0.1% Tween80 (HPMC/T) and orally dosed (4–100 mg/kg). When dosed twice daily (bid), the time between the morning and evening doses was 8 hours. Targeted irradiation of 2 Gy was delivered over 2 minutes daily over the first 5 days of treatment. Liposomal doxorubicin (Doxoves) was diluted in physiological saline and intravenously dosed at 2.5 or 5 mg/kg once per week. Olaparib was formulated in 10% DMSO/30% Kleptose and orally dosed at 100 mg/kg once daily.
(§4) HPMC/T. Tumour growth inhibition from start of treatment was assessed by co mparison of the mean change in tumour volume for the control and treated groups, using the Mousetrap application and represented as tumour growth inhibition (TGI). Statistical significance was evaluated using a one-tailed t-test. […]
(§5) was prepared using an appropriate dilution factor and compared against an 11-point standard calibration curve (1–10,000 nM) prepared in DMSO and spiked into bl ank plasma. […] Supernatant (50 µL) was then diluted in 300 µL water and analysed with ultra-performance liquid chromatography–tandem mass […]

For another assay, the system named is A549 xenografts. The experiment in a line: Xenograft efficacy study with fractionated IR. The procedure: as §1, with “legislation. CDX and OV2022 PDX studies were conducted in the UK in accordance with UK Home Office legislation, the Animal Scientific Procedures Act 1986 and the Home Office project licences 70/8839, 70/8894 and P0EC1FFDF.” for “legislation.”
as §2, §3, §4, §5

In a further assay the test system is HBCx-17 TNBC PDX. In words: PDX efficacy study. The procedure:
as §1, with “legislation. CDX and OV2022 PDX studies were conducted in the UK in accordance with UK Home Office legislation, the Animal Scientific Procedures Act 1986 and the Home Office project licences 70/8839, 70/8894 and P0EC1FFDF.” for “legislation.”
(§6) SCID mice were surgically implanted subcutaneously with tumour fragments from donor mice. Tumours were measured (length x width) by bilateral Vernier calliper measurements and tumour volume calculated using Mousetrap software. Mice were randomized into […]
treatment groups when mean tumour volume reached ~0.2 cm 3.

The test system of the next assay is CTG-0149 H&N PDX. In words: PDX efficacy study. Conditions: AZD7648 single agent. As to the method:
as §1, with “legislation. CDX and OV2022 PDX studies were conducted in the UK in accordance with UK Home Office legislation, the Animal Scientific Procedures Act 1986 and the Home Office project licences 70/8839, 70/8894 and P0EC1FFDF.” for “legislation.”
as §6, §3
(§7) HPMC/T. Tumour growth inhibition from start of treatment was assessed by co mparison of the mean change in tumour volume for the control and treated groups, using the Mousetrap application and represented as tumour growth inhibition (TGI). Statistical significance was evaluated using a one-tailed t-test. HBCx-17 PDX study was carried out at XenTech, France in accordance with French regulatory legislation concerning the protection of laboratory animals. CTG-703, CTG-0828 and CTG-0149 PDX studies were carried out at Champions Oncology, Inc., USA in accordance to the guidelines of the Institutional Animal Care and Use Committee (IACUC) of Champions Oncology and the USA regulatory legislation. CDX and OV2022 PDX studies were conducted in the UK in accordance with UK Home Office legislation, the Animal Scientific Procedures Act 1986, and AstraZeneca’s global bioethics policy. Experimental details are outlined in Home […]
(§8) Blood samples were taken via venipuncture of the tail vein. Whole blood was mixed 1: 5 with PBS and centrifuged at 1500g for 3 minutes at 4°C, and the plasma was extracted […]
(§9) was prepared using an appropriate dilution factor and compared against an 11-point standard calibration curve (1–10,000 nM) prepared in DMSO and spiked into bl ank plasma. Acetonitrile (100 µL) was added with the internal standard, followed by centrifugation at 3000 rpm for 10 minutes. Supernatant (50 µL) was then diluted in 300 µL water and analysed with ultra-performance liquid chromatography–tandem mass […]
(§10) Xenograft sample preparation
(§11) Animals were euthanized and tumour samples snap frozen in liquid nitrogen or fixed in formalin and paraffin embedded for subsequent analysis. Tumour pieces were lysed in […]

The subject of the next assay is OV2022 ovarian PDX. In words: PDX efficacy study. The settings on record: AZD7648 single agent. As to the method:
as §1, with “legislation. CDX and OV2022 PDX studies were conducted in the UK in accordance with UK Home Office legislation, the Animal Scientific Procedures Act 1986 and the Home Office project licences 70/8839, 70/8894 and P0EC1FFDF.” for “legislation.”
as §6, §3, §7, §8, §9, §10, §11

Another assay relates to CTG-0828 NSCLC PDX. The experiment in a line: PDX efficacy study. The settings on record: AZD7648 single agent. The procedure:
as §1, with “legislation. CDX and OV2022 PDX studies were conducted in the UK in accordance with UK Home Office legislation, the Animal Scientific Procedures Act 1986 and the Home Office project licences 70/8839, 70/8894 and P0EC1FFDF.” for “legislation.”
as §6, §3, §7, §8, §9, §10, §11

The test system of another assay is CTG-703 ovarian PDX. The experiment in a line: PDX efficacy study. Conditions: AZD7648 single agent. As to the method:
as §1, with “legislation. CDX and OV2022 PDX studies were conducted in the UK in accordance with UK Home Office legislation, the Animal Scientific Procedures Act 1986 and the Home Office project licences 70/8839, 70/8894 and P0EC1FFDF.” for “legislation.”
as §6, §3, §7, §8, §9, §10, §11

For the compound `Cc1cc2ncnn2cc1Nc1ncc2c(n1)n(C1CCOCC1)c(=O)n2C` [AZD7648], the TGI in assay [1] is 20%; in the assay with HBCx-17 TNBC PDX (AZD7648 75 mg kg−1 bid single agent (olaparib study)), 65%; in the assay on HBCx-17 TNBC PDX (AZD7648 single agent (doxorubicin study)), 25%; in the assay with CTG-0149 H&N PDX it was 60–80%; in the assay on OV2022 ovarian PDX it was 60–80%; in the assay with CTG-0828 NSCLC PDX it was “too variable to assess the group effect”. The TGI in the assay on CTG-703 ovarian PDX was 60–80%. Moreover, the tumour regression in the assay on NCI-H1299 xenografts (AZD7648 50 mg kg−1 qd × 21 days + IR 2 Gy qd × 5 days) was determined as 55%; in the assay with NCI-H1299 xenografts (AZD7648 100 mg kg−1 qd × 21 days + IR 2 Gy qd × 5 days) it was 85%. Besides, in the assay with A549 xenografts (AZD7648 100 mg kg−1 qd oral + IR 2 Gy for five consecutive days), the “tumour growth inhibition (TGI)” value was 90%. Besides, in the assay with A549 xenografts (AZD7648 100 mg kg−1 qd oral, single agent), the “tumour response to single-agent treatment” value was “insensitive”.
